Laboratory results taken from paper PMC11080019, “Synthesis and Biological Profiling of Quinolino-Fused 7-Deazapurine Nucleosides” (ACS Omega, 2024).
Structures can show the parent of a compound that is named as a salt.

Target: T1, T7 RNA polymerase (Escherichia phage T7, UniProt P00573)
T1 construct: purchased New England Biolabs
Assay: In vitro transcription (IVT) with T7 RNA polymerase, 35DNA_A7 template
Format: biochemical
Conditions: 7.5 mM NTPs, 37 °C, 16 h, 35-mer RNA with seven modifications
Protocol: A^QTP was then used as a substrate for the T7 RNA polymerase in the in vitro transcription (IVT) experiments.[30] We used 35DNA_A7 DNA template encoding for 35-mer RNA containing seven A^Q modifications (Table 4). We used the T7 High Yield RNA Synthesis Kit with a high concentration of NTPs (7.5 mM each) but without any further additives. The reaction time at 37 °C was 16 h. The positive control experiment was performed with all four natural NTPs giving nonmodified transcript 35RNA_A7 (Figure 2, lane 2). The negative control contained only the natural CTP, GTP, and UTP in the absence of ATP (Figure 2, lane 3). The real IVT experiment was performed with A^QTP and three natural NTPs (Figure 2, lane 4). The transcription products were visualized by denaturing 20% denaturing PAGE (Figure 2) and characterized by LC–MS (see Figures S1 and S2 in the SI). […]
Aliquots of the first three reactions (50 ng) were separated by denaturating PAGE (20%) with urea at 23 mV for 1 h and visualized by fluorescence imaging.
Aliquots of the positive control (35RNA_A7) and the modified RNA (35RNA_A^Q7) were analyzed by UPLC-ESI-MS confirming the full transcription without any misincorporation (see Figures S1 and S2 in Supporting Information).

T1 sequence (P00573 whole entry): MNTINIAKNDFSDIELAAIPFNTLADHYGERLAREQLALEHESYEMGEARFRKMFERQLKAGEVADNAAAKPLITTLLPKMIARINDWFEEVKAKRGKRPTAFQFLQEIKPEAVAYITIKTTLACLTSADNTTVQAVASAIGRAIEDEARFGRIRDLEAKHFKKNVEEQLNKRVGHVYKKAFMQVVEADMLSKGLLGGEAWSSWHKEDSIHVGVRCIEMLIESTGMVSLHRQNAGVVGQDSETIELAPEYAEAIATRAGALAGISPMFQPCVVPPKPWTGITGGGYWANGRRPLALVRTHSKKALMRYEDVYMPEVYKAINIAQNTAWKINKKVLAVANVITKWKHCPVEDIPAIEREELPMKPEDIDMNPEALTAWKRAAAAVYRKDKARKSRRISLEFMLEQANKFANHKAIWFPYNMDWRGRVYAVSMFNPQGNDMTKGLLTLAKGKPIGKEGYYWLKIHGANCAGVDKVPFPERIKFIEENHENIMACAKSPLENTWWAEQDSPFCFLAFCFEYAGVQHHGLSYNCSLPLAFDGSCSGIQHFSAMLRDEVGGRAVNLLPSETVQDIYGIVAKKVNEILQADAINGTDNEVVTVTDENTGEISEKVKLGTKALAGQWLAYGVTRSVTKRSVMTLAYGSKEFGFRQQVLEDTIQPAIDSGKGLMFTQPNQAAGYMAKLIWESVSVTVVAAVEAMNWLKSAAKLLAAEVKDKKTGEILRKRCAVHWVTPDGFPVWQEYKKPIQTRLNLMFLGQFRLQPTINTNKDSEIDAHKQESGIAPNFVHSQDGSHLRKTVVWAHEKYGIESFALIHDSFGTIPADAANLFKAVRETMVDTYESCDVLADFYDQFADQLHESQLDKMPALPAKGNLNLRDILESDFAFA

Q: With `Nc1ncnc2c1c1c3cccnc3ccc1n2[C@@H]1O[C@H](COP(=O)(O)OP(=O)(O)OP(=O)(O)O)[C@@H](O)[C@H]1O` [A^QTP, 11-Amino-7-(β-D-ribofuranosyl)pyrimido[5′,4′:4,5]pyrrolo[3,2-f]quinoline 5′-O-Triphosphate Bistriethylammonium Salt] as the compound, how does the “substrate activity for T7 RNA polymerase in in vitro transcription (in words)” value read?
A: moderately efficient substrate
